Assay: xn = mol fraction of the nth substance listed
Settings: 100.5 kPa, Liquid; for viscosity: Capillary tube (Ostwald / Ubbelohde) method

COC(=O)c1ccccc1 [methyl benzoate] + CCO
Settings	mass density, 288.15 K [kg/m3]	mass density, 298.15 K [kg/m3]	mass density, 308.15 K [kg/m3]	mass density, 318.15 K [kg/m3]	viscosity, 288.15 K [mPa·s]	viscosity, 298.15 K [mPa·s]	viscosity, 308.15 K [mPa·s]	viscosity, 318.15 K [mPa·s]
x1 = 0.05	825.66	816.86	807.97	798.9	1.324	1.092	0.911	0.766
x1 = 0.1	853.88	844.92	835.86	826.58	1.323	1.094	0.915	0.77
x1 = 0.15	879.1	869.96	860.69	851.28	1.338	1.107	0.924	0.782
x1 = 0.2	901.63	892.4	883.02	873.48	1.359	1.122	0.94	0.797
x1 = 0.25	922.04	912.73	903.27	893.66	1.383	1.144	0.958	0.814
x1 = 0.3	940.62	931.27	921.76	912.06	1.417	1.171	0.981	0.834
x1 = 0.35	957.58	948.19	938.63	928.88	1.455	1.199	1.006	0.855
x1 = 0.4	973.15	963.7	954.11	944.3	1.496	1.232	1.031	0.877
x1 = 0.45	987.48	978.01	968.36	958.52	1.541	1.266	1.061	0.902
x1 = 0.5	1000.69	991.23	981.53	971.68	1.589	1.303	1.091	0.928
x1 = 0.55	1012.94	1003.42	993.75	983.88	1.64	1.341	1.123	0.954
x1 = 0.6	1024.33	1014.81	1005.11	995.26	1.692	1.384	1.158	0.982
x1 = 0.65	1034.94	1025.44	1015.73	1005.87	1.746	1.429	1.193	1.014
x1 = 0.7	1044.83	1035.36	1025.64	1015.8	1.807	1.475	1.231	1.047
x1 = 0.75	1054.13	1044.67	1034.95	1025.13	1.87	1.526	1.275	1.083
x1 = 0.8	1062.88	1053.41	1043.73	1033.93	1.942	1.581	1.318	1.122
x1 = 0.85	1071.11	1061.7	1052.04	1042.24	2.03	1.645	1.369	1.166
x1 = 0.9	1078.93	1069.53	1059.87	1050.1	2.118	1.712	1.421	1.208
x1 = 0.95	1086.31	1076.94	1067.3	1057.55	2.207	1.784	1.48	1.255
x1 = 1	1093.23	1083.92	1074.34	1064.62	2.297	1.851	1.531	1.297
